{"source": "patent US7691969B2", "about": "“Isolated GRP94 ligand binding domain polypeptide and nucleic acid encoding same, crystalline form of same, and screening methods employing same” (Duke University, priority 2001, dated 2010)", "key": {"[1]": {"target": "T1, GRP94 (Sus scrofa, UniProt Q29092)", "T1 construct": "GRP94 was purified from porcine pancreas rough microsomes; from tissue; host or cells: porcine pancreas rough microsomes (lumenal contents)", "T1 sequence (Q29092 22-804)": "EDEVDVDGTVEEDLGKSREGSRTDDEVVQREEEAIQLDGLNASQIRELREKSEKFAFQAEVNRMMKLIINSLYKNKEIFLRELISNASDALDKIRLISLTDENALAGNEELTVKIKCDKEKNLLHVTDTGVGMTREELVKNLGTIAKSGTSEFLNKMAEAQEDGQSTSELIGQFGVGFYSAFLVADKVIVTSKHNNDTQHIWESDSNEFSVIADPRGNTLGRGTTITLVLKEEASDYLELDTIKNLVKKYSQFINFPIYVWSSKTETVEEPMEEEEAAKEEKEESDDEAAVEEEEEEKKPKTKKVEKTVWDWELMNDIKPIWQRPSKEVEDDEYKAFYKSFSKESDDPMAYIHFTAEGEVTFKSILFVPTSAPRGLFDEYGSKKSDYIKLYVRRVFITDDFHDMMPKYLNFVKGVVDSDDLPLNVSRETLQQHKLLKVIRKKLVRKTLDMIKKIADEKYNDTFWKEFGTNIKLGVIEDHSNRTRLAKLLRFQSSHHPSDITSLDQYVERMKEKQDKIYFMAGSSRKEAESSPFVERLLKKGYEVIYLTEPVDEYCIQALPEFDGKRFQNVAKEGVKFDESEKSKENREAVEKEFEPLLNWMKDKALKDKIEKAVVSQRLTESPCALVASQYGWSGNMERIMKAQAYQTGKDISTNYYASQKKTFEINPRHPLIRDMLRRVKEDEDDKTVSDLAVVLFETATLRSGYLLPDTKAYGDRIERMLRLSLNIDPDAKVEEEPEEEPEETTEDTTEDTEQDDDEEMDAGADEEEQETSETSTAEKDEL", "assay": "[3H]-NECA competitive displacement assay", "type": "binding, porcine", "settings": "10 mM Mg(OAc)2 versus nominal magnesium", "experimental": "(§1) Where indicated, binding reactions were performed in either buffer C (10 mM Tris, pH 7.5, 50 mM KCl, 5 mM MgCl2, 2 mM DTT, 0.01% NP-40, 20 mM Na2MoO4) or 50 mM Tris, pH 7.5, 10 mM Mg(OAc)2. […] Vacuum filtration was performed with an Amersham Pharmacia Biotech (Piscataway, N.J.) vacuum filtration manifold.\nAll binding reactions were performed in triplicate and corrected by subtraction of background values, determined in binding reactions lacking GRP94."}, "[2]": {"target": "casein kinase II (Homo sapiens, UniProt P68400)", "sequence (P68400 whole entry)": "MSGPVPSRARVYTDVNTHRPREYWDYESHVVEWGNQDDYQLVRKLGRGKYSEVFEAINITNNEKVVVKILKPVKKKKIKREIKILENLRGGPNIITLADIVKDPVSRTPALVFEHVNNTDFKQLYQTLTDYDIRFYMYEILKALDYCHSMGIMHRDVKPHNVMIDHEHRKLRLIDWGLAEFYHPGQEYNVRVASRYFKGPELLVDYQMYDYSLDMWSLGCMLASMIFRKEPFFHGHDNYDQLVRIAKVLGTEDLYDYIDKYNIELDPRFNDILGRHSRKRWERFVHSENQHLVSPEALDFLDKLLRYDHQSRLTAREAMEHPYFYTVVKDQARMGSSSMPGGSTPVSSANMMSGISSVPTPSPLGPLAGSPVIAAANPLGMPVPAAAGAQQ", "sequence (P67870 whole entry partner)": "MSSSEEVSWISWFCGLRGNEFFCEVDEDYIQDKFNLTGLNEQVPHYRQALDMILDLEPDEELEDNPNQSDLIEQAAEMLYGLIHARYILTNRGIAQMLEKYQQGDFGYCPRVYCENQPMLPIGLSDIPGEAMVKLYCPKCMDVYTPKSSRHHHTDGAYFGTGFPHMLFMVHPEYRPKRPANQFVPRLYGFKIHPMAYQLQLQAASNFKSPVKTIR", "assay": "Casein kinase assay", "type": "biochemical", "settings": "180 μM NECA or radicicol in 3.6% DMSO, 5 μg/ml heparin, 5 mM GTP; 4 μM casein", "experimental": "(§2) Phosphorylation Assays. To assay for GRP94 autophosphorylation, 1 μM GRP94 was incubated with γ-[^32P]ATP (6000 cpm/pmol) (Amersham Pharmacia Biotech of Piscataway, N.J.), diluted with cold ATP to yield a final concentration of 0.15 mM ATP in a buffer containing 10 mM Mg(OAc)2 and 50 mM K-Hepes, pH 7.4. For the casein kinase assay, 1 unit of casein kinase II was incubated as described above, with the addition of 4 μM casein. […] The 25 μl reaction mixtures were incubated at 37° C. for 1 hour and quenched by addition of 10% trichloroacetic acid. Samples were analyzed by 10% SDS-PAGE gels and the phosphorylated species were quantitated using a Fuji MACBAS1000™ phosphorimaging system (Fuji Medical Systems of Stamford, Conn.)."}, "[3]": {"target": "T1, GRP94", "assay": "Tryptophan fluorescence (tertiary conformational state)", "type": "biochemical, porcine", "settings": "50 μM NECA, 50 μM geldanamycin, 2.5 mM ATP or 2.5 mM ADP; 1 h 37° C.", "experimental": "Tryptophan Fluorescence. Tryptophan fluorescence measurements were conducted in a FLUOROMAX™ spectrofluorometer (Spex Industries, Inc. of Edison, N.J.) with the slit widths set to 1 nm for both excitation and emission. […] All spectra were corrected by subtraction of buffer or buffer plus ligand samples. GRP94 (50 μg/ml) was incubated in buffer A supplemented with 10 mM Mg(OAc)2 and the following concentrations of ligands for 1 hour at 37° C. […] Samples were then cooled to room temperature, transferred to a quartz cuvette, and the spectra collected."}, "[4]": {"target": "T1, GRP94", "assay": "[3H]-NECA binding assay (vacuum filtration)", "design": "species or system porcine", "experimental": "as §1\nFilters were rapidly washed with 3×4 ml of ice cold 50 mM Tris, pH 7.5, placed in 5 ml of scintillation fluid (SAFETYSOLVE™, RPI of Mt. Prospect, Ill.), vortexed, and counted by liquid scintillation spectrometry. […] All binding reactions were performed in triplicate and corrected by subtraction of background values, determined in binding reactions lacking GRP94."}, "[5]": {"target": "T1, GRP94", "assay": "Isothermal titration calorimetry", "type": "binding, porcine", "experimental": "Isothermal Titration Calorimetry. Isothermal calorimetry experiments were performed at 25° C. using a MSC calorimeter (MicroCal Inc. of Northampton, Mass.). […] The reaction chamber (1.3 mL) contained 5 μM GRP94. Necessary corrections were made by subtracting the heats of dilution resulting from buffer addition to protein solution and ligand solution into buffer."}, "[6]": {"target": "T1, GRP94", "assay": "GRP94 autophosphorylation assay", "type": "biochemical, porcine", "settings": "180 μM NECA or radicicol in 3.6% DMSO, 5 μg/ml heparin, 5 mM GTP", "experimental": "as §2"}, "[7]": {"test_system": "BiP", "assay": "[3H]-NECA binding assay (vacuum filtration)", "design": "species or system porcine", "settings": "20 nM [3H]-NECA, 60 min on ice"}, "[8]": {"target": "T1, GRP94", "assay": "ATPase assay (HPLC of ATP/ADP)", "type": "biochemical, porcine", "experimental": "ATPase Assay. 100 μl reactions consisting of 1 μM GRP94 monomer, various concentrations of MgATP (pH 7.0), and 50 mM K-Hepes, pH 7.4, were incubated for two hours at 37° C. Samples were then spun through a CENTRICON®-30 (Amicon of Beverly, Mass.) at 10,000 rpm, 4° C. to separate protein from nucleotide. A final concentration of 50 mM (NH4)2HPO4, pH 7.0, and 4 μM AMP, pH 7.0, was added to dilutions of the above samples and centrifuged at 15,200 rpm for 5 minutes at 4° C. 100 μL of supernatant was then fractionated on a […]™ SAX column (Alltech of Deerfield, Ill.), using a Series 1050 Hewlett Packard HPLC system. Elution of nucleotides was performed by step gradient elution using a mobile phase of 150 mM (NH4)2HPO4, pH 5.2, at 1.2 ml/min for the first ten minutes, followed by 300 mM (NH4)2HPO4, pH 5.2, at a flow rate of 2 ml/min for the remainder of the elution. In this protocol, ADP and ATP were well resolved, with ADP eluting at 7 minutes and ATP at 12 minutes. Peak height values were used in calculations of percent hydrolysis and ADP formation. Spontaneous hydrolysis was determined for each ATP concentration in paired incubations lacking GRP94. The AMP was used as an internal reference standard to control for equivalent sample loading."}}}
{"smiles": "CCNC(=O)[C@H]1O[C@@H](n2cnc3c(N)ncnc32)[C@H](O)[C@@H]1O", "note": "[NECA, N-ethylcarboxamidoadenosine]", "values": [{"measurement": "effect of excess Mg2+ on binding to GRP94", "setting": "[1]", "result": "without effect on the binding of NECA or adenosine to GRP94"}, {"measurement": "inhibition of casein kinase II activity", "setting": "[2]", "result": "neither NECA nor radicicol, both of which bind to the N-terminal nucleotide binding domain of GRP94, significantly inhibit GRP94 derived or casein kinase II activity below the solvent background"}, {"measurement": "change of GRP94 tryptophan fluorescence", "setting": "[3]", "result": "increased the tryptophan fluorescence"}, {"measurement": "slope of Hill plot", "setting": "[4]", "result": 1.2}, {"measurement": "[3H]-NECA binding activity", "setting": "[4]; 20 nM [3H]-NECA, 60 min on ice", "result": "displayed readily detectable [^3H]-NECA binding activity"}, {"measurement": "maximal binding stoichiometry (saturation curve)", "setting": "[4]; FIG. 9B", "result": "1 molecule of NECA per molecule of GRP94 dimer"}, {"measurement": "binding stoichiometry", "setting": "[4]; radioligand filtration", "result": "0.5 mol [^3H]-NECA/mol GRP94 monomer"}, {"measurement": "binding stoichiometry at saturation (summary of ligand binding studies and calorimetry)", "setting": "[5]", "result": "1 mol NECA:mol GRP94 dimer"}, {"measurement": "binding stoichiometry by isothermal titration calorimetry", "setting": "[5]; 5 μM GRP94, 152 μM NECA stock, 25° C.", "result": 1.1, "unit": "mol NECA/mol GRP94 dimer"}, {"measurement": "inhibition of GRP94 autophosphorylation (GRP94-derived kinase) activity", "setting": "[6]", "result": "neither NECA nor radicicol, both of which bind to the N-terminal nucleotide binding domain of GRP94, significantly inhibit GRP94 derived or casein kinase II activity below the solvent background"}, {"measurement": "[3H]-NECA binding activity", "setting": "[7]", "result": "[^3H]-NECA binding was not observed for Hsp90 or BiP"}, {"measurement": "inhibition of GRP94 ATPase activity", "setting": "[8]", "result": "sensitive to inhibition by NECA"}]}
